{
  "source": "patent US20170197977A9",
  "about": "“COMPOSITIONS AND METHODS FOR TREATING NEURODEGENERATIVE DISEASE” (COGNITION THERAPEUTICS, INC., priority 2011, published 2017)",
  "key": {"[1]": {"test_system": "Abeta oligomer-induced memory deficits in wt C57BL/6 mice", "assay": "Contextual fear conditioning after intrahippocampal Abeta oligomer injection", "format": "in vivo, mouse", "method": "Abeta oligomers (single 200 nanoMolar intrahippocampal injection) produced significant deficits in memory formation in 3-4 month old male wt C57BL/6 mice (N=16) compared to vehicle (N=18).\nSeveral pharmaceutical companies use this same model in their discovery efforts. Contextual fear conditioning is an accepted model of associative memory formation which correlates to human cognitive function and specifically the creation of new (Delgado '06). Abeta oligomers are injected into the hippocampus of wild-type animals immediately before conditioning training and memory is assessed via freezing behavior after 24 hours. Details are provided in Example 9. […] This model system was chosen because intrahippocampal administration of oligomers allows rapid comparative assessment of compound activity and off-target toxicity. The results are shown graphically in FIG. 4.\nCompound II was tested in an animal model of a memory-dependent behavioral task known as fear conditioning. The study protocol was designed based on published protocols (See e.g. Puzzo D, Privitera L, Leznik E, Fà M, Staniszewski A, Palmeri A, Arancio O. Picomolar amyloid-beta positively modulates synaptic plasticity and memory in hippocampus. J. Neurosci. 2008 Dec. 31; 28(53):14537-45.). The formation of contextual memories is dependent upon the integrity of medial temporal lobe structures such as the hippocampus. […]"}, "[2]": {"test_system": "hAPP (Swedish/London) transgenic mice", "conditions": "0.5 mg/kg/day subcutaneous minipump, one month, 8 month old female mice", "method": "In this study, rather than preventing deficits from occurring, deficits that were already established were treated. These studies were performed pursuant to a service contract by scientists who were blind to the experimental conditions. The compound was infused at 0.5 and 0.1 mg/kg/day for one month in 8 month old female mice via subcutaneous minipump and cognitive performance was tested in the Morris water maze, a test of hippocampal-based spatial learning and memory.\nThe swim speed was analyzed as part of the Morris measurements to determine if there were any motor or motivational deficits. Our vehicle is a 5% DMSO/5% Solutol, 90% saline mixture. The transgenic animals treated with a low dose (0.1 mg/kg/day) and a high dose (0.5 mg/kg/day) of compound. The average of three daily trials on each of four consecutive days were determined.\nEscape latency measurements from the Morris water test were taken.\nDuring the final four days of treatment, mice were tested to find the hidden platform in three trials/day. A computerized tracking system automatically quantified escape latency, or swim length."}, "[3]": {"test_system": "neurons and glia in culture", "assay": "In vitro neuronal and glial toxicity, acute or chronic dosing", "format": "cell-based", "conditions": "up to 50 μM, three days"}, "[4]": {"test_system": "Abeta oligomer binding to neurons", "assay": "Abeta 1-42 oligomer binding assay in primary neurons", "format": "cell-based, rat", "method": "In this assay, Abeta oligomers were brought in contact with mature primary neurons in culture and their binding was determined by immunohistochemistry (anti-Abeta antibody) and quantified by image processing. The amount of Abeta in neuronal dendrites is assessed by counting the number of labeled puncta on the neuritis. […] This labeling is associated with synapses, co-localizing with the post-synaptic scaffold protein PSD-95 (Lacor et al., '04). […] The number of synapses can also be quantified in this assay by immunofluorochemistry. Similar procedures for binding assays can be found in the literature. […] Review.\nPrimary hippocampal neuronal culture was established as in the membrane trafficking assay above. […] Pretreatment with compounds to be tested lasted for 1 hr and addition of Abeta oligomers or no oligomer (vehicle alone) in a final concentration of 70 ul was followed by incubation for an additional 23 hrs.\nThe plates were then washed 3× with PBS for 5 min each. The plates were blocked at RT for 1 hr in 5% goat serum and 0.5% Triton X-100 in PBS. […] Primary antibodies were incubated overnight at 4° C. The plates were then washed 3× with PBS for 5 min each. […] Secondary antibodies were incubated at RT for 1 hr. The plates were washed once with PBS. DAPI (4′,6-diamidino-2-phenylindole, Invitrogen) was then applied at 0.03 ug/ul and incubated at RT for 5 min, then washed with PBS.\nImages were captured and analyzed with the Cellomics VTI automated microscope platform, using the Neuronal Profiling algorithm. For statistical analysis, a Tukey-Kramer pair-wise comparison with unequal variance was used."}, "[5]": {"test_system": "caspase-3 activity in SKOV-3 human ovarian cancer cells", "assay": "Caspase-3 activity assay in tumor cells", "format": "cell-based"}, "[6]": {"test_system": "Abeta oligomer-induced membrane trafficking deficits", "assay": "Membrane trafficking/exocytosis (MTT) assay in mature primary hippocampal neurons", "format": "cell-based, rat", "conditions": "for Membrane trafficking when dosed in the absence of Abeta: compound alone", "method": "The present exocytosis assay was adapted for use with mature primary neuronal cultures grown for 3 weeks in vitro.\nThe methods used to generate the results were as follows in the Membrane Trafficking/Exocytosis (MTT) assay.\nPrimary hippocampal neurons from E18 Sprague-Dawley rat embryos were plated at optimized concentrations in 384 well plates in NB media (Invitrogen). Neurons were maintained in cultures for 3 weeks, with twice weekly feeding of NB media with N2 supplement (Invitrogen).\n[…] MTT reagent (3-(4,5-dimethylthizaol-2yl)-2,5diphenyl tetrazolium bromide) (Roche Molecular Biochemicals) was reconstituted in phosphate buffered saline to 5 mg/mL. 10 μL of MTT labeling reagent is added to each well and incubated at 37° C. for 1 h, then imaged. Exocytosis was assessed by automated microscopy and image processing to quantify the amount of endocytosed and exocytosed formazan.\nEach assay plate was formatted so that compounds are tested with and without Abeta oligomer on each plate."}},
  "note": "Entries after “also recorded” stand apart in the source; their conditions may differ.",
  "data": [
    {"molecule": "COc1cc(CCC(C)NCc2ccc(C(F)(F)F)cc2)ccc1O", "note": "(stereo not shown) [Compound II]", "values": [
      {"measurement": "Memory performance when dosed alone", "setting": "[1]; no Abeta oligomer", "result": "no effect of compounds alone"},
      {"measurement": "Abeta oligomer-induced memory deficits (freezing behavior 24 hours post-training)", "setting": "[1]; single intrahippocampal injection one hour prior to oligomers (2 microMolar, b68; 2 pmol dose)", "result": "completely blocked oligomer-mediated memory deficits; also recorded: eliminated memory deficits"},
      {"measurement": "Cognitive performance, escape latency", "setting": "[2]", "result": "capable of improving cognitive performance"},
      {"measurement": "Toxicity (neuron number, glial number, nuclear size, nuclear morphology, neurite length, cytoskeletal morphology)", "setting": "[3]", "result": "no toxicity"},
      {"measurement": "Abeta binding", "setting": "[4]; Compound II 15 uM", "result": "reduced to essentially control levels"},
      {"measurement": "Reduction of Abeta binding intensity (Abeta labeled puncta)", "setting": "[4]; FIG. 3D", "result": 18, "unit": "%"},
      {"measurement": "Partial block of binding of the Abeta oligomer ligand to neurons", "setting": "[4]; imaging processing algorithm", "result": "about 25%"},
      {"measurement": "Block of caspase-3 activation caused by sigma-2 receptor agonist SV-119", "setting": "[5]", "result": "do not block caspase-3 activation"},
      {"measurement": "Induction of caspase-3 activity", "setting": "[5]", "result": "did not induce caspase-3 activity"},
      {"measurement": "Membrane trafficking deficits induced by AD brain-derived Abeta oligomers", "setting": "[6]; 137 pM oligomers, Compound II 15 uM", "result": "eliminates the membrane trafficking deficits; also recorded: completely eliminated"},
      {"measurement": "Abeta oligomer-induced membrane traffic changes", "setting": "[6]; 15 micromolar Compound II", "result": "blocked"},
      {"measurement": "Assay effects in the absence of Aβ", "setting": "[6]; Table 10A, trafficking or synapse number without Abeta oligomer", "result": "No"},
      {"measurement": "Functional Neuronal Phenotype", "setting": "[6]; Table 10B", "result": "Antagonist"},
      {"measurement": "Conc at Max Inhib. of Abeta", "setting": "[6]; Table 11, figure in brackets", "result": 10},
      {"measurement": "Membrane trafficking when dosed in the absence of Abeta", "setting": "[6]", "result": "does not affect trafficking"},
      {"measurement": "Membrane trafficking when dosed in the absence of Abeta", "setting": "[6]; listed as CT0109", "result": "no significant effect"}
    ]}
  ]
}
